We go through one compound from ChEMBL document CHEMBL1150892, “Kalkipyrone, a toxic gamma-pyrone from an assemblage of the marine cyanobacteria Lyngbya majuscula and Tolypothrix sp” (J Nat Prod, 1998).

A short description of data set [1]: Ichthyotoxicity in gold fish after 1 hr. Type of data set: organism-based. The settings on record: carassius auratus, in vivo; read-out: LD50.
Data set [2] in a line: Toxicity in Artemia salina. The class given is organism-based. The settings on record: in vivo, read-out: LD50 (the source's name).

≈ marks a conversion by molar mass, not a printed value.

As to `COc1oc(C/C=C(\C)C/C=C/C(C)=C/[C@@H](C)O)c(C)c(=O)c1C` [KALKIPYRONE], the LC50 at 1 h in data set [1] amounted to 2 µg/mL (≈ 6.02 µM). In addition, the LC50 in data set [2] was 1 µg/mL (≈ 3.01 µM).
